The results in this text go back to paper PMC4580457, “Use of Labelled tLyP-1 as a Novel Ligand Targeting the NRP Receptor to Image Glioma” (PLoS ONE, 2015).

Peptide text beside a SMILES is read from it. * marks the point of attachment. 5FAM = O=C1OC2(c3ccc(O)cc3Oc3cc(O)ccc32)c2ccc(C(=O)*)cc21

The data set can be described thus: in vivo. Set-up: species or system BALB/C athymic nude mice. As to conditions: BALB/C athymic nude, mouse, iv, 150 uL of 1 mM, T/NT ratio. The procedure: Mice with U87MG tumor xenografts (n = 10) were randomly divided into an experimental group (n = 5) and control group (n = 5). The mice in the experimental group were intravenously injected with 150 μL of FAM-tLyP-1 (1mM), while the control group received 150 μL of FAM-labeled control peptide (1mM). The mice were sacrificed after 1 h by cervical dislocation under ketamine/xylazine anesthesia. The tumor and normal organs were then removed, washed with PBS at least three times, and then collected for imaging ex vivo. FAM-tLyP-1 uptake in the tumor and normal organs was described by a blinded observer under blue light with an exposure time of 60 s, using the Kodak in-Vivo Imaging System F (Kodak, American), and processed for fluorescence intensity analysis. The fluorescence intensity was analyzed visually based on the brightness of the green light indicating uptake of FAM-tLyP-1.
The intensity of FAM-tLyP-1 uptake in the tumor and normal organs was analyzed blindly using the Kodak MI analysis software (Kodak, American). The fluorescence intensity was analyzed visually from high to low levels based on a color scale of white, red, yellow, green, blue, and black. Regions of interest (ROIs) were drawn around the border of the tumor and normal organs on the fluorescence images and the average fluorescence intensity was measured. The tumor/non-tumor ratios (T/NT ratios) were calculated by dividing the fluorescence intensity in the tumor by that of the normal organs.

As to `C[C@@H](O)[C@H](NC(=O)[C@H](CCCNC(=N)N)NC(=O)[C@H](CCCCNC(=O)c1ccc2c(c1)C(=O)OC21c2ccc(O)cc2Oc2cc(O)ccc21)NC(=O)[C@H](CC(N)=O)NC(=O)CNC(=O)[C@@H](N)CS)C(=O)N[C@@H](CCCNC(=N)N)C(=O)O` [FAM-tLyP-1] (H-CGNK(5FAM)RTR-OH), the tissue to tissue ratio at 1 h (T/brain) turned out to be 3.44 ± 0.83; the tissue to tissue ratio at 1 h (T/heart) was 4.61 ± 1; the tissue to tissue ratio at 1 h (T/intestine) is 0.84 ± 0.35; the tissue to tissue ratio at 1 h (T/kidney) turned out to be 0.88 ± 0.74; the tissue to tissue ratio at 1 h (T/liver) stood at 2.34 ± 0.36; the tissue to tissue ratio at 1 h (T/lung) came to 3.29 ± 0.79. Besides, under “T/muscle”, the tissue to tissue ratio at 1 h was found to be 2.87 ± 0.45.
With `CSCC[C@H](N)C(=O)N[C@@H](C)C(=O)N[C@@H](CCC(N)=O)C(=O)N[C@@H](CCCCNC(=O)c1ccc2c(c1)C(=O)OC21c2ccc(O)cc2Oc2cc(O)ccc21)C(=O)N[C@H](C(=O)N[C@@H](CO)C(=O)N[C@@H](Cc1c[nH]cn1)C(=O)O)[C@@H](C)O` [FAM-control peptide] (H-MAQK(5FAM)TSH-OH), the tissue to tissue ratio at 1 h (T/brain) is 1.32 ± 0.15; the tissue to tissue ratio at 1 h (T/heart) came to 1.94 ± 0.26; the tissue to tissue ratio at 1 h (T/intestine) is 0.87 ± 0.3; the tissue to tissue ratio at 1 h (T/kidney) is 0.57 ± 0.51; the tissue to tissue ratio at 1 h (T/liver) is 1.28 ± 0.25; the tissue to tissue ratio at 1 h (T/lung) came out at 1.4 ± 0.1. The tissue to tissue ratio at 1 h runs as follows: (T/muscle) 1.31 ± 0.14; (T/spleen) 1.75 ± 0.17.
